The text below walks through data of ChEMBL document CHEMBL5614418, “Discovery of novel dihydropyrrolidone-thiadiazole compound crosstalk between the YycG/F two-component regulatory pathway and cell membrane homeostasis to combat methicillin-resistant Staphylococcus aureus” (Eur J Med Chem, 2024).

Structures are written as SMILES. Values after ≈ are worked out from the molar mass of the structure shown. Active and inactive are the calls of the source. The calls are words filed in the database; no cut-off is given here.

Assay [1] relates to Staphylococcus epidermidis. Kind of assay: Bactericidal activity against Staphylococcus epidermidis SE1457 assessed as planktonic cells killing by measuring log reduction in bacterial count at 8 times MIC measured after 24 hrs. It counts as functional, organism-based.
Assay [2] has as its system Staphylococcus epidermidis. Kind of assay: Antibacterial activity against Staphylococcus epidermidis SE1457 by broth microdilution method. It counts as functional. (In broth dilution the organism is exposed to a series of concentrations in liquid medium.)
The subject of assay [3] is Staphylococcus aureus. Put plainly: Antibacterial activity against methicillin sensitive Staphylococcus aureus SA113 by broth microdilution method. It counts as functional.
For another assay, the system named is Enterococcus faecalis. Kind of assay: Antibacterial activity against Enterococcus faecalis OG1RF by broth microdilution method. Format: functional.
The next assay relates to Enterococcus faecium. Put plainly: Antibacterial activity against Enterococcus faecium EFM64 by broth microdilution method. It counts as functional.
In assay [4] the test system is Staphylococcus aureus. Kind of assay: Bactericidal activity against Staphylococcus aureus USA300 assessed as planktonic cells killing by measuring log reduction in bacterial count at 8 times MIC measured after 24 hrs. It counts as functional, organism-based.
In assay [5] the test system is Staphylococcus aureus. Kind of assay: Antibacterial activity against methicillin resistant Staphylococcus aureus USA300 by broth microdilution method. It counts as functional.
The subject of assay [6] is Staphylococcus epidermidis. Kind of assay: Induction of matured biofilm eradication in Staphylococcus epidermidis SE1457 assessed as reduction in bacterial survival in biofilm at 8 times MIC incubated for 48 hrs by SYTO 9 staining based confocal fluorescence microscopic analysis. Format: functional.
The test system of assay [7] is Staphylococcus aureus. Kind of assay: Induction of matured biofilm eradication in methicillin resistant Staphylococcus aureus YUSA145 assessed as reduction in bacterial survival in biofilm at 8 times MIC incubated for 48 hrs by SYTO 9 staining based confocal fluorescence microscopic analysis. Format: functional.
The subject of assay [8] is Staphylococcus aureus. Kind of assay: Antibacterial activity against methicillin resistant Staphylococcus aureus USA300 infected in BALB/c mouse wound model assessed as log reduction in wound bacterial load at 10 mg/kg, ip administered every 12 hrs for 3 times and measured after 48 hrs. It counts as functional.
Assay [9] has as its system Staphylococcus epidermidis. Kind of assay: Antibacterial activity against methicillin resistant Staphylococcus epidermidis SE1457 infected in BALB/c mouse wound model assessed as log reduction in wound bacterial load at 10 mg/kg, ip administered every 12 hrs for 3 times and measured after 48 hrs. It counts as functional.

The MIC is the lowest concentration found to suppress growth. As for `CCCCCCCCCC(=O)N[C@@H](Cc1c[nH]c2ccccc12)C(=O)N[C@H](CC(N)=O)C(=O)N[C@@H](CC(=O)O)C(=O)N[C@@H]1C(=O)NCC(=O)N[C@@H](CCCN)C(=O)N[C@@H](CC(=O)O)C(=O)N[C@H](C)C(=O)N[C@@H](CC(=O)O)C(=O)NCC(=O)N[C@H](CO)C(=O)N[C@@H]([C@H](C)CC(=O)O)C(=O)N[C@@H](CC(=O)c2ccccc2N)C(=O)O[C@@H]1C`, the result (in [1]; in the assay with Staphylococcus aureus [4]) was inactive. For the same compound, the MIC was found to be 2 µM (≈ 3.24 µg/mL) in [2]; 2 µM (≈ 3.24 µg/mL) against Staphylococcus aureus [3]; 2 µM (≈ 3.24 µg/mL) in the assay on Enterococcus faecalis; 2 µM (≈ 3.24 µg/mL) against Enterococcus faecium; 2 µg/mL (≈ 1.23 µM) against Staphylococcus aureus [5]. In addition, the Activity (in assay [6]; in the assay on Staphylococcus aureus [7]) was <50% in each case. In addition, the “log(activity)” value (with Staphylococcus aureus [8]; in [9]) was 1 in each case.
